Assay results as given in patent US10428134B2, “Immunoglobulins and uses thereof” (JANSSEN PHARMACEUTICA NV, priority 2016, dated 2019).
Marks after values point to notes of the source that are not given here.

Legend:
[1] = Repeat dosing in DIO mice: food intake, body weight, body composition; format: in vivo, mouse; details: 0.3 nmol/kg s.c. daily
Protocol: (§1) To control for the dosing frequency, all animals were dosed daily. Dosing frequency was determined on the basis of DIO mouse PK data for compound 2 and dulaglutide. Animals in the dulaglutide group received this drug daily. The vehicle-treated animals received vehicle daily. […] The day prior to initiating of dosing, animals were weighed and grouped by body weight. […].
(§2) Beginning 24-hr after the first dosing, three groups of mice were pair-fed (PF) to the 1.0, 2.0, or 4.0 nmol/kg compound 2-treated animals. The amount of food in the hopper of pair-fed mice was adjusted to match the average food consumed in the previous 24 hours by mice in the compound treatment group to which they were being matched. All PF groups were dosed daily with vehicle. On the ninth day (or Day 10 for the pair-fed groups), animals were fasted for 6 hours and body weight and fasting glucose were measured. Blood was collected for measurements of insulin, FGF21 and plasma lipids. The food intake, body weight, body composition, fasting glucose, fasting insulin, fasting FGF21, and fasting plasma lipid data are shown in tables 20-26.

[2] = Single-dose efficacy in DIO mice: food intake, body weight
[3] = Single-dose efficacy in DIO mice: IPGTT, fasting glucose, insulin; details: 0.3 nmol/kg s.c.
[4] = Repeat dosing in DIO mice: fasting glucose, insulin, FGF21, plasma lipids; format: in vivo, mouse; details: 0.3 nmol/kg s.c. daily
Protocol: as §1, §2

[5] = OGTT after 8 days of treatment in DIO mice (glucose, insulin); format: in vivo, mouse; details: 0.3 nmol/kg s.c. every day
Protocol: (§3) Compound 1 was evaluated for its ability to reduce foot intake and body weight and improve glucose homeostasis on repeat dosing in male DIO C57Bl/6 mice over a period of 8 days. Male DIO C57BL/6N mice (20 weeks of age, 14 weeks on high fat diet) were obtained from Taconic Laboratory. […] Animals were acclimated to the facility for at least one week prior to the start of the experiment.
(§4) The day prior to dosing, mice were grouped based on individual body weights. At 3:00-4:00 pm for each of the next 8 days, animals and food intake were weighed. […] After 8 days, mice are fasted for 5 hours and then given a 2 g/kg bolus of glucose orally at t=0. At t=0, 30, 60, 90, and 120 minutes post glucose challenge blood glucose is measured and at t=0, 30, and 90 minutes blood in drawn to measure plasma insulin. […] All data are presented as the mean±SEM (FIGS. 8 and 9, and Tables 5-8).

human GCGR = target: T1, human GCGR (Homo sapiens, UniProt P47871); experiment: human glucagon receptor cAMP assay; format: cell-based; details: HEK293 cells
T1 construct: expressed in transfected cells
Protocol: (§5) For each receptor assay, the clonal cells were seeded into 384-well plates at the appropriate densities ranging from 2000-5000 cells/per well. Compounds were diluted in HBSS supplemented with 5 mM HEPES, 0.1% BSA and 0.5 mM IBMX and added to the cells. […] Standard curves were included in each assay plate for back calculation of cAMP concentrations.

mouse GCGR = target: T2, mouse GCGR (Mus musculus, UniProt Q61606); experiment: mouse glucagon receptor cAMP assay; format: cell-based; details: HEK293 cells
T2 construct: expressed in transfected cells
Protocol: as §5

rat GCGR = target: T3, rat GCGR (Rattus norvegicus, UniProt P30082); experiment: rat glucagon receptor cAMP assay; format: cell-based; details: HEK293 cells
T3 construct: expressed in transfected cells
Protocol: as §5

[6] = Fed blood glucose after 8 days of treatment in DIO mice; format: in vivo, mouse; details: 0.3 nmol/kg s.c. every day
Protocol: as §3, §4

[7] = Weight loss in DIO mice, chronic dosing: body weight; format: in vivo, mouse; details: 0.3 nmol/kg s.c. every day
Protocol: as §3, §4

cynomolgus monkey GCGR = experiment: cynomolgus monkey glucagon receptor cAMP assay; format: cell-based; details: HEK293 cells
Protocol: as §5

[8] = Single-dose efficacy in DIO mice: plasma FGF21; details: 0.3 nmol/kg s.c., 26 hours after treatment

T3 sequence (P30082 27-485): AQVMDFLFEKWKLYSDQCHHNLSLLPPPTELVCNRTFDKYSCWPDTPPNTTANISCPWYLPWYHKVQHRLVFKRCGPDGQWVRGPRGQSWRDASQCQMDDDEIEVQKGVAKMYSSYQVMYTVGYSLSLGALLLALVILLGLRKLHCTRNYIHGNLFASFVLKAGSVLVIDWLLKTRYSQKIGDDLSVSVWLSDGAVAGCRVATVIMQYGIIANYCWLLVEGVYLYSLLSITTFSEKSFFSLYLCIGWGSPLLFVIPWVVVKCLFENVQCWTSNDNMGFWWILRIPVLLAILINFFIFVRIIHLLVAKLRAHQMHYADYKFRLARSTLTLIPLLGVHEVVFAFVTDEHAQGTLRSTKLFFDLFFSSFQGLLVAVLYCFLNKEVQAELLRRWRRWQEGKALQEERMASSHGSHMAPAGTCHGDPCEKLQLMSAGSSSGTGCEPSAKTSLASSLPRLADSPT
T2 sequence (Q61606 27-485): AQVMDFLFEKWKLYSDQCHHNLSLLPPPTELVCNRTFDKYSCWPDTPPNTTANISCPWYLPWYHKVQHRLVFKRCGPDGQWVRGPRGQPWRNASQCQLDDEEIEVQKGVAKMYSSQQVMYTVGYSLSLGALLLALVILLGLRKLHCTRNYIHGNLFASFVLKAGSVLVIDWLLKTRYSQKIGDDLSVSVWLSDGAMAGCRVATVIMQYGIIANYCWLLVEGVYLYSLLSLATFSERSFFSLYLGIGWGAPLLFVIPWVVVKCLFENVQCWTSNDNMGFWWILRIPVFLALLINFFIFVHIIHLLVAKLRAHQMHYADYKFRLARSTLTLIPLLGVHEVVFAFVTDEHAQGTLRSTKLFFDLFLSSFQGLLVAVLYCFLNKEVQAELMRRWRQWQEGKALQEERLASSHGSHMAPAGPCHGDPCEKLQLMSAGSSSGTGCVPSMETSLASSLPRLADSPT
T1 sequence (P47871 26-477): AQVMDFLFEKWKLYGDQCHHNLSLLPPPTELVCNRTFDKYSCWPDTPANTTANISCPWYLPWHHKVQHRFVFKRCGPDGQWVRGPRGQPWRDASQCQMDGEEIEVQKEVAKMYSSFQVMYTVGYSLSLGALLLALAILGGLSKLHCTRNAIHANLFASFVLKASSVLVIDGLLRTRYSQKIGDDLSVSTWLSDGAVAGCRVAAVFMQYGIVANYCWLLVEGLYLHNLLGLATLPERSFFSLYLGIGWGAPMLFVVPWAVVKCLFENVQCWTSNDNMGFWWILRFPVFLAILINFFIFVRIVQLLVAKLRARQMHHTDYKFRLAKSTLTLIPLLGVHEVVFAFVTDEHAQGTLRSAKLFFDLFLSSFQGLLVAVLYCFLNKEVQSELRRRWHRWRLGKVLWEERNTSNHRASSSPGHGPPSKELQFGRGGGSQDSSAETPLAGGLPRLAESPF

Substance: Dulaglutide: the GLP1R agonist, dulaglutide [reference compound]
- body composition: Fat % of Body Weight ([1]; after repeated dosing): 22.8 ± 1.2%
- body composition: Fat Mass ([1]; after repeated dosing): 7.6 ± 1.1 g
- body composition: Lean % of Body Weight ([1]; after repeated dosing): 61.0 ± 1.7%
- body composition: Lean Mass ([1]; after repeated dosing): 22.1 ± 0.3 g
- daily food intake ([1]; day 0): 3.1 ± 0.2 grams
- percent body weight change ([1]; day 0): 0.0%
- daily food intake ([1]; day 1): 1.5 ± 0.2 grams
- percent body weight change ([1]; day 1): −3.7 ± 0.3%
- daily food intake ([1]; day 2): 1.3 ± 0.2 grams
- percent body weight change ([1]; day 2): −6.2 ± 0.6%
- daily food intake ([1]; day 3): 1.7 ± 0.3 grams
- percent body weight change ([1]; day 3): −7.8 ± 0.8%
- daily food intake ([1]; day 4): 1.9 ± 0.2 grams
- percent body weight change ([1]; day 4): −9.2 ± 0.8%
- daily food intake ([1]; day 5): 2.1 ± 0.2 grams
- percent body weight change ([1]; day 5): −10.1 ± 0.8%
- daily food intake ([1]; day 6): 2.2 ± 0.2 grams
- percent body weight change ([1]; day 6): −10.2 ± 0.8%
- daily food intake ([1]; day 7): 2.3 ± 0.2 grams
- percent body weight change ([1]; day 7): −10.7 ± 1.0%
- daily food intake ([1]; day 8): 2.9 ± 0.4 grams
- percent body weight change ([1]; day 8): −11.1 ± 0.9%
- daily food intake ([1]; day 9): 2.5 ± 0.2 grams
- percent body weight change ([1]; day 9): −13.1 ± 1.1%
- food intake ([2]; 0.3 nmol/kg group, 24 hours pre-dose): 3.1 ± 0.1 grams
- Weight Change ([2]; single s.c. dose 0.3 nmol/kg, 18 hours after treatment): −4.1 ± 0.3 %
- food intake ([2]; single s.c. dose 0.3 nmol/kg, 18 hours post-dose): 1.5 ± 0.1*^ grams
- Plasma Insulin ([3]; 10 minutes post-glucose (IPGTT)): 1.7 ± 0.2 ng/mL
- 6 hour fasting Blood Glucose ([3]; 24 hours after treatment): 140 ± 7 mg/dL
- Blood Glucose Net AUC (IPGTT) ([3]; 24 hours after treatment): 8471 ± 1204
- blood glucose during IPGTT ([3]; 24 hours after treatment, 0 min): 140 ± 7 mg/dL
- blood glucose during IPGTT ([3]; 24 hours after treatment, 10 min): 264 ± 18 mg/dL
- blood glucose during IPGTT ([3]; 24 hours after treatment, 30 min): 267 ± 22 mg/dL
- blood glucose during IPGTT ([3]; 24 hours after treatment, 60 min): 228 ± 12 mg/dL
- blood glucose during IPGTT ([3]; 24 hours after treatment, 90 min): 193 ± 9 mg/dL
- Plasma Insulin ([3]; Pre-glucose (24 hours after treatment)): 1.6 ± 0.2 ng/mL
- plasma Free Fatty Acids ([4]; after repeated dosing): 73.2 ± 12.0 µmol/L
- plasma Free Glycerol ([4]; after repeated dosing): 0.5 ± 0.1 mmol/L
- plasma Total cholesterol ([4]; after repeated dosing): 146.1 ± 3.3 mg/dL
- plasma Triglycerides ([4]; after repeated dosing): 24.1 ± 2.3 mg/dL
- 6 hour fasting Blood Glucose ([4]; after repeated dosing (9 days)): 123 ± 5 mg/dL
- 6 hour fasting Plasma Insulin ([4]; after repeated dosing (9 days)): 1.4 ± 0.2 ng/mL
- 6 hour fasting plasma FGF21 ([4]; after repeated dosing (9 days)): 0.5 ± 0.1 ng/mL
- blood glucose Delta AUC (OGTT) [5]: 6668 ± 1846 mg/dl/120 min
- blood glucose Total AUC (OGTT) [5]: 15758 ± 1054 mg/dl/120 min
- blood glucose during OGTT ([5]; 0 min after glucose challenge): 76 ± 9 mg/dL
- insulin during OGTT ([5]; 0 min after glucose challenge): 0.6 ± 0.1 ng/mL
- blood glucose during OGTT ([5]; 30 min after glucose challenge): 151 ± 14 mg/dL
- insulin during OGTT ([5]; 30 min after glucose challenge): 1.7 ± 0.2 ng/mL
- blood glucose during OGTT ([5]; 60 min after glucose challenge): 174 ± 17 mg/dL
- blood glucose during OGTT ([5]; 90 min after glucose challenge): 104 ± 10 mg/dL
- insulin during OGTT ([5]; 90 min after glucose challenge): 0.7 ± 0.2 ng/mL
- blood glucose during OGTT ([5]; 120 min after glucose challenge): 119 ± 9 mg/dL
- EC50 (human GCGR): > 100 nM
- EC50 (mouse GCGR): > 100 nM
- EC50 (rat GCGR): > 100 nM
- fed Blood Glucose [6]: 114 ± 13 mg/dL
- body weight ([7]; day 0): 45.9 ± 0.6 g
- body weight ([7]; day 1): 44.1 ± 0.6 g
- body weight ([7]; day 2): 42.2 ± 0.6 g
- body weight ([7]; day 3): 40.6 ± 0.6 g
- body weight ([7]; day 4): 39.3 ± 0.6 g
- body weight ([7]; day 5): 38.1 ± 0.7 g
- body weight ([7]; day 6): 37.1 ± 0.8 g
- body weight ([7]; day 7): 36.4 ± 1.0 g
- body weight ([7]; day 8): 36.5 ± 1.1 g
- body weight ([7]; day −1): 46.3 ± 0.6 g
- EC50 (cynomolgus monkey GCGR): > 100 nM
- Plasma FGF21 [8]: 0.8 ± 0.2 ng/mL
